Test results as given in ChEMBL document CHEMBL1201862, “PubChem BioAssay data set” (2004).
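Cells were grown in 96-well plates and exposed to each compound for 48 hours at five concentrations; endpoints were interpolated linearly between bracketing concentrations, or set to the highest concentration if not reached. GI50 is the concentration that inhibits growth by half.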 The source made the active and inactive calls. Cut-off read from the data, not from the text of the source: active = GI50 up to about 1.1 µM and inactive = higher.

Columns and labels:
Assay in all cases: inhibition of tumour cell growth, NCI panel, 48 h
A549 = tested on: A549
CAKI-1 = tested on: CAKI-1
HCC 2998 = tested on: HCC 2998
HCT-116 = tested on: HCT-116
HCT-15 = tested on: HCT-15
HOP-92 = tested on: HOP-92
Hs-578T = tested on: Hs-578T
K562 = tested on: K562
KM12 = tested on: KM12
MCF7 = tested on: MCF7
NCI-H460 = tested on: NCI-H460
NCI/ADR-RES = tested on: NCI/ADR-RES
OVCAR-4 = tested on: OVCAR-4
OVCAR-8 = tested on: OVCAR-8
PC-3 = tested on: PC-3
RPMI-8226 = tested on: RPMI-8226
SF-539 = tested on: SF-539
SNB-19 = tested on: SNB-19
U-251 = tested on: U-251
UO-31 = tested on: UO-31

SMILES | GI50 (A549) | GI50 (CAKI-1) | GI50 (HCC 2998) | GI50 (HCT-116) | GI50 (HCT-15) [µM] | GI50 (HOP-92) | GI50 (Hs-578T) | GI50 (K562) | GI50 (KM12) | GI50 (MCF7) | GI50 (NCI-H460) | GI50 (NCI/ADR-RES) | GI50 (OVCAR-4) | GI50 (OVCAR-8) | GI50 (PC-3) | GI50 (RPMI-8226) | GI50 (SF-539) | GI50 (SNB-19) | GI50 (U-251) | GI50 (UO-31)
O=C1c2ccccc2-[n+]2ccc3c([nH]c4ccccc43)c21 [FASCAPLYSIN CHLORIDE] | 0.565 µM (active) | 0.659 µM (active) | 0.19 µM (active) | 0.195 µM (active) | 0.851 | 1.66 µM (inactive) | 1.24 µM (inactive) | 0.925 µM (active) | 0.18 µM (active) | 0.184 µM (active) | 0.263 µM (active) | 1.21 µM (inactive) | 0.628 µM (active) | 0.439 µM (active) | 0.269 µM (active) | 0.186 µM (active) | 0.349 µM (active) | 0.615 µM (active) | 0.274 µM (active) | 0.682 µM (active)
CCCOC(=O)c1cc(O)c(O)c(O)c1 [PROPYL GALLATE] | 27.2 µM (inactive) | > 100 µM (inactive) | 45.1 µM (inactive) | 20.8 µM (inactive) | 20.7 | 60.4 µM (inactive) | 17.5 µM (inactive) | > 100 µM (inactive) | 20.5 µM (inactive) | 42 µM (inactive) | 30.1 µM (inactive) | 26.5 µM (inactive) | > 100 µM (inactive) | 27.9 µM (inactive) | 18.7 µM (inactive) | > 100 µM (inactive) | 10.9 µM (inactive) | 57.4 µM (inactive) | 56.4 µM (inactive) | 8.95 µM (inactive)
